Patent US20010034322A1, “Taxol-like protein (TALP) and process for preparing the same” (priority 1996, published 2001)

Legend:
Type in all cases: biochemical
tubulin [1] = experiment: effect of Ca2+ on microtubules assembled by GTP, taxol or TALP; details: 4 mM CaCl2
Description: To investigate effect of Ca^2+ on tubulin polymerization, tubulin was added to 0.1M MES buffer(pH 6.8) free of EGTA, and GTP, taxol or TALP was added, and polymerization of microtubules were carried out at 37° C. for 15 minutes. Then, 4 mM CaCl2 was added to the reaction mixture, and depolymerization of microtubules assembled was measured, with the addition of GTP, taxol or TALP(see: FIG. 5).

[2] = tested on: tubulin isolated from bovine brain; experiment: coprecipitation of tubulin and TALP (centrifugation, SDS-PAGE of supernatants and pellets); details: tubulin 0.4 mg/ml, 37° C., 30 minutes
Description: To investigate whether TALP promotes microtubule assembly in the same manner as taxol, tubulin isolated from bovine brain was added to 0.1M MES buffer(pH 6.8) to a concentration of 0.4 mg/ml. Then, 2 mM GTP, 10 μM taxol or 4 μM TALP was added to the reaction mixture, and polymerization of microtubules were carried out at 37° C. for 30 minutes. The reaction mixtures were centrifuged for 20 minutes, and the supernatants and the pellets thus obtained were analyzed by 12% SDS-PAGE(see: FIG. 7(A)).
Also, tubulin polymerization was investigated with the variation of TALP concentration. […] In FIGS. 7(A) and 7(B), S and P designate supernatant and pellet, respectively.

tubulin [3] = experiment: electron microscopic analysis of microtubules; details: tubulin 1 mg/ml, 37° C., 30 minutes
Description: When tubulin polymerization was monitored by measuring the absorbance as in Example 1, increase in the absorbance may occur not only by microtubule assembly but also by the aggregation of tubulins. Thus, in order to confirm that the turbidity change is caused by microtubule assembly, the morphology of the polymers was examined with electron microscopy. Tubulin was added to 0.1M MES buffer to a concentration of 1 mg/ml, and GTP, taxol or TALP was added to a final reaction volume of 250 μl. The reaction mixture was incubated at 37° C. for 30 minutes, and the absorbance change at 350 nm was monitored. At this time, the reaction solutions showing increase in the absorbance were fixed and applied to a carbon-coated grids, and dried. Grids were then stained with 1% uranyl acetate for 5 minutes, washed with distilled water, and dried. And then, they were examined with electron microscope(Hitachi H-600, Japan) at an accelerated voltage of 75 kv.

tubulin [4] = experiment: effect of cold temperature (4° C.) on microtubules assembled by GTP, taxol or TALP; details: chilled to 4° C.
Description: To investigate effect of cold temperature on tubulin polymerization, tubulin was added to 0.1M MES buffer(pH 6.8). Then GTP, taxol or TALP was added to the reaction mixture, and polymerization of microtubules were carried out at 37° C. for 15 minutes. Then, the reaction solution was chilled to a temperature of 4° C., and depolymerization of microtubules assembled was measured, with the addition of GTP, taxol or TALP(see: FIG. 6).

tubulin [5] = experiment: tubulin polymerization monitored by turbidity (absorbance at 350 nm); details: 20 μM taxol; control 2 mM GTP
Description: All of the purification steps were carried out under 4° C., and TALP activity was determined by the conventional tubulin polymerization which was monitored by turbidity(see: Gaskin, F. et al., 1974, J. Mol. Biol., 89:737-758): Tubulin prepared according to the method of Hamel et al. or Asnes et al.(see: Hamel E. et al., 1981, Arch. Biochem. Biophys., 209:29-40; Asnes, C. F. and Wilson, L., 1979, Anal. Biochem., 98:64-73) was added to 0.1M MES(2-[N-morpholino]ethane sulfonic acid) buffer(0.1M MES containing 1 mM EGTA and 1 mM MgCl2, pH 6.8) to a final concentration of 1 mg/ml, and TALP containing solution was added to a final reaction volume of 250 μl. The reaction mixture was incubated at 37° C. for 30 minutes, and the change in absorbance at 350 nm was monitored with a Gilford Model 2600 spectrophotometer(Gilford, USA).
Effects of GTP, taxol and TALP on tubulin polymerization were examined in the same manner as described in Example 1.
When 0.5 μM of TALP was added to the reaction mixture, tubulin polymerization occurred twice or more as high as one without TALP(see: FIG. 4).

SMILES	microtubules depolymerized by Ca2+ (tubulin [1]; assembled by 2 mM GTP)	tubulins polymerized ([2]; 2 mM GTP)	morphology of the polymers by electron microscopy (tubulin [3])	microtubules depolymerized at 4° C. (tubulin [4]; assembled by 2 mM GTP)	microtubules depolymerized by Ca2+ (tubulin [1]; assembled by 10 μM taxol)	tubulins polymerized ([2]; 10 μM taxol)	tubulin polymerization, times as high as the control (tubulin [5])	microtubules depolymerized at 4° C. (tubulin [4]; assembled by 10 μM taxol)
Nc1nc2c(ncn2[C@@H]2O[C@H](COP(=O)(O)OP(=O)(O)OP(=O)(O)O)[C@@H](O)[C@H]2O)c(=O)[nH]1 [GTP]	most	most of tubulins were not polymerized	typical microtubules were assembled	most	–	–	–	–
CC(=O)O[C@H]1C(=O)[C@@]2(C)[C@H]([C@H](OC(=O)c3ccccc3)[C@]3(O)C[C@H](OC(=O)[C@H](O)[C@@H](NC(=O)c4ccccc4)c4ccccc4)C(C)=C1C3(C)C)[C@]1(OC(C)=O)CO[C@@H]1C[C@@H]2O [taxol]	–	–	typical microtubules were assembled	–	30%	about 20%	2.5 times	25%
